The source of these data is US8614179B2, “Antibacterial combination therapy for the treatment of gram positive bacterial infections” (E-Therapeutics PLC, priority 2008, dated 2013).

One data set has as its system Escherichia coli. Kind of data set: MIC by agar dilution, Escherichia coli. Format: cell-based. The procedure:
(§1) Other solvents that may be used include caster oil, pyridine, and 0.9% saline. For IV administration agents may be solubilised in polyethoxylated caster oil, or cyclodextrins such as sulfobutylether7-βcyclodextrin or hydroxypropyl-β-cyclodextrin and lactic acid. Minimum inhibitory concentrations (MICs) of a range of clinical and control bacterial organisms were measured according to BSAC (British Society for Antimicrobial Chemotherapy) guidelines (Andrews 2001), for single agents. The method of determining MICs of imidazole with colistin, D-cycloserine, fosfomycin, polymixin B, or nisin is described briefly as follows. MICs were measured by agar dilution. Kill curves were performed in accordance with the methods of Garrison and Nuemiller, 2007. Briefly kill profiles were generated by logarithmically plotting mean CFU/mL data over time. Total logarithmic reductions in bacterial counts were determined by subtracting 24 h CFU/mL values from starting inocula.
(§2) Stock solutions were prepared at concentrations of 1000 mg/L and 100 mg/L. To determine the MIC of miconazole, the appropriate amount of each stock solution were added to separate Petri dishes give a range of final concentrations (after the addition of 20 mL molten agar): from 0.12 to 32 mg/L. To determine the MICs of miconazole with the specific agent active on a bacterial cell surface, these concentrations of miconazole were used in addition to a fixed sub-inhibitory amount of the agent active on a bacterial cell surface. […] Volumes (20 mL) of cooled molten IST agar (oxoid) was added to each Petri dish and mixed by swirling. After drying, the plates were stored at 4° C. and protected from light. Plates were used on the day of preparation.
(§3) The test organisms were grown overnight in 5 mL IST broth. Using a dilution in 0.9% saline of 1:100, the appropriate agar plates were inoculated using a multipoint inoculator. […]
(§4) The MIC is the minimum amount of an antibiotic at which there is no visible growth of bacteria. Tiny single colonies or faint hazes were not counted as growth. […]
For orientation: In agar dilution the substance is mixed into plates at graded concentrations.

The subject of data set [1] is Enterococcus faecium (VRE). Description: microbe, parasite or virus in culture. Format: cell-based. The procedure:
(§5) In example experiments miconazole nitrate, econazole nitrate and clotrimazole were dissolved in DMSO. Colistin, D-cycloserine, fosfomycin and polymixin B were dissolved in water. Nisin was suspended at 10 mg/mL in 0.02 M HCl, and the supernatant fraction following centrifugation at 10,000 g for 10 mins was used in the following experiments.
as §1, §2
(§6) The test organisms were grown overnight in 5 mL IST broth. Using a dilution in 0.9% saline of 1:100, the appropriate agar plates were inoculated using a multipoint inoculator.
(§7) Agar plates and microtitre plates were incubated at 37° C. in air for 18-20 hours.
(§8) The MIC is the minimum amount of an antibiotic at which there is no visible growth of bacteria. Tiny single colonies or faint hazes were not counted as growth. Synergy was reported if the inhibitory effect of the drugs in combination were greater than the sum of the inhibitory effects of each drug singly. The concentration of miconazole, with or without the cell membrane or cell wall active agent, capable of inhibiting the growth of 50% and 90% of the strains tested is reported as the MIC50 and MIC90 respectively. The range of MICs for each group of bacterial strains is also reported.

For the next data set, the system named is VISA. Kind of data set: microbe, parasite or virus in culture. Type of data set: cell-based. Particulars: Staphylococcus aureus. The procedure:
as §5, §1, §2, §6, §7, §8

The test system of data set [2] is Enterococcus faecalis (VRE). Description: MIC by agar dilution, Enterococcus faecalis (VRE). Format: cell-based. The procedure: as §1, §2, §3, §4
In the next data set the test system is Pseudomonas aeruginosa. Description: MIC by agar dilution, Pseudomonas aeruginosa. Type of data set: cell-based. As to the method: as §1, §2, §3, §4
Data set [3] relates to Staphylococcus epidermidis. Kind of data set: MIC by agar dilution, Staphylococcus epidermidis. Format: cell-based. The procedure:
as §1, §2, §3, §4

The conditions of data set [4]: in vivo, cited from earlier work.
The next data set has as its system MRSA AND VRE. Kind of data set: MIC by agar dilution, MIC50/MIC90/range over MRSA and VRE strain panel. Type of data set: cell-based, Staphylococcus aureus; Enterococci. As to the method: In example experiments miconazole nitrate, econazole nitrate and clotrimazole were dissolved in DMSO. Colistin, D-cycloserine, fosfomycin and polymixin B were dissolved in water.
as §1, with “The method of determining MICs of imidazole with colistin, D-cycloserine, fosfomycin, polymixin B, or nisin is described briefly as follows.” left out
as §2, §3
The MIC is the minimum amount of an antibiotic at which there is no visible growth of bacteria. Tiny single colonies or faint hazes were not counted as growth. […] The concentration of miconazole, with or without the cell membrane or cell wall active agent, capable of inhibiting the growth of 50% and 90% of the strains tested is reported as the MIC50 and MIC90 respectively. The range of MICs for each group of bacterial strains is also reported.

[5] abbreviates: ATCC 4147 / VRE, Table 2, strain E15 VanA ATCC 4147, read-out: MIC.
Where [6] appears, read: NCTC 7171 / VRE, Table 2, strain NCTC 7171, read-out: MIC.
Where [7] appears, read: VRE, Table 2, strain E19 UAA/522 VanB, read-out: MIC.
Where [8] appears, read: VRE, Table 2, strain VanR B145344C LFE, read-out: MIC.
Where [9] appears, read: Table 2, strain USA/VISA 5827, read-out: MIC.
The mark [10] stands for this setting: Table 2, strain USA/VISA 5836, read-out: MIC.
[11] abbreviates: Table 2, strain VISA 3900 UK, read-out: MIC.

Where two headings read alike, the source gives them in different places.

Regarding `c1ccc(-c2ccc(C(c3ccccc3)n3ccnc3)cc2)cc1` (stereo not drawn) [Bifonazole], the MIC with Escherichia coli (NCTC10418, Table 2, strain NCTC 10418, read-out: MIC) was over 128 µg/mL; in data set [1] (setting [5]), over 128 µg/mL; in data set [1] (setting [6]) it was over 128 µg/mL; in data set [1] (setting [7]) it was over 128 µg/mL; in data set [1] (setting [8]), over 128 µg/mL; in the data set on VISA (setting [9]) it was over 128 µg/mL. In addition, the MIC is over 128 µg/mL with VISA (setting [10]); over 128 µg/mL in the data set on VISA (setting [11]); over 128 µg/mL in data set [2] (Table 2, strain E8 VanA, read-out: MIC); over 128 µg/mL with Pseudomonas aeruginosa (NCTC10662, Table 2, strain NCTC 10662, read-out: MIC); over 128 µg/mL in data set [3] (ATCC1228, Table 2, strain ATCC 1228, read-out: MIC).

Regarding `Clc1ccccc1C(c1ccccc1)(c1ccccc1)n1ccnc1` [Clotrimazole, 1-[(2-Chlorophenyl)diphenylmethyl]-1H-imidazole], the half-life result in data set [4] (human, po) is given as “around 3 hours”. The “absorption following oral administration” value in data set [4] was “well absorbed”.

Consider `N[C@@H]1CONC1=O` [D-cycloserine], for which, in the data set on MRSA AND VRE (D-cycloserine alone at 10 mg/L), the “inhibitory effect on the growth of the bacterial strains tested” value (“inhibitory effect on the growth” for short) is recorded as “no inhibitory effect”.

Consider `OC(Cn1cncn1)(Cn1cncn1)c1ccc(F)cc1F` [Fluconazole], for which the MIC in the data set with Escherichia coli (NCTC10418) is over 128 µg/mL; in data set [1] (ATCC 4147 / VRE, Table 2, strain E15 VanA ATCC 4147) it was over 128 µg/mL; in data set [1] (NCTC 7171 / VRE, Table 2, strain NCTC 7171) it was over 128 µg/mL; in data set [1] (VRE, Table 2, strain E19 UAA/522 VanB), over 128 µg/mL; in data set [1] (VRE, Table 2, strain VanR B145344C LFE), over 128 µg/mL; in the data set with VISA (Table 2, strain USA/VISA 5827), over 128 µg/mL. Further, the MIC was over 128 µg/mL with VISA (Table 2, strain USA/VISA 5836); over 128 µg/mL with VISA (Table 2, strain VISA 3900 UK); over 128 µg/mL in data set [2]; over 128 µg/mL in the data set with Pseudomonas aeruginosa (NCTC10662); over 128 µg/mL in data set [3] (ATCC1228).

With `CC(=O)N1CCN(c2ccc(OCC3COC(Cn4ccnc4)(c4ccc(Cl)cc4Cl)O3)cc2)CC1` (stereo not drawn) [Ketoconazole], the MIC with Escherichia coli (NCTC10418) was over 256 µg/mL; in data set [1] (setting [5]), 16 µg/mL; in data set [1] (setting [6]) it was 128 µg/mL; in data set [1] (setting [7]) it was 128 µg/mL; in data set [1] (setting [8]), 128 µg/mL; with VISA (setting [9]) it was 64 µg/mL. Moreover, the MIC with VISA (setting [10]) is 64 µg/mL; with VISA (setting [11]), 64 µg/mL; in data set [2], over 256 µg/mL; in the data set on Pseudomonas aeruginosa (NCTC10662), over 256 µg/mL; in data set [3] (ATCC1228) it was 64 µg/mL.

For `C[C@@H]1O[C@@H]1P(=O)(O)O` [fosfomycin], in the data set with MRSA AND VRE (fosfomycin alone at 5 mg/L), the “inhibitory effect on the growth” value was “no inhibitory effect”.

For the compound colistin, the “inhibitory effect on the growth” value with MRSA AND VRE (colistin alone at 5 mg/L) is on record as “no inhibitory effect”.

polymixin B: the “inhibitory effect on the growth” value in the data set on MRSA AND VRE (polymixin B alone at 20 mg/L) is on record as “no inhibitory effect”.
